Here are results for 25 compounds from patent publication US20080287430A1, “Furan Compounds Useful As Ep1 Receptor Antagonists” (priority 2005, published 2008).

Structures are written as SMILES. Structures can show the parent of a compound that is named as a salt. Bounds are passed on as bounds.

This test addresses T1, human EP1 receptor (Homo sapiens, UniProt P34995).
T1 construct: expressed in transfected cells; host or cells: CHO-K1
T1 sequence (P34995 1-402): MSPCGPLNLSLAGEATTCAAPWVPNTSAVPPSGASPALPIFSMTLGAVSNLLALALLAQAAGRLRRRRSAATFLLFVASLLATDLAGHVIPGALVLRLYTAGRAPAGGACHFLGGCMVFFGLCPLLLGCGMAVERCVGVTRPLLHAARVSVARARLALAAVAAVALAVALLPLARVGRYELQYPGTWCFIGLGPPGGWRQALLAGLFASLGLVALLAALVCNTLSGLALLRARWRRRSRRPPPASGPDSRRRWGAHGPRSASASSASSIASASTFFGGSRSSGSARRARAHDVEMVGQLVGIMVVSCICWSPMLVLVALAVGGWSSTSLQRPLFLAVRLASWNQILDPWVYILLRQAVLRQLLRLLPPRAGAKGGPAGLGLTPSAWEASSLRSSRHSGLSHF
The experiment in a line: human EP1 calcium mobilisation assay. It counts as cell-based. The conditions noted are these: human EP1, PGE2-induced calcium mobilisation in CHO-K1 cells; free bases or sodium salts; averages of a number of experiments; read-out: functional pKi value (converted). In a few lines:
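CHO-K1 cells stably expressing human EP1, loaded with Fluo-4 after 24 h at 37° C; compounds added before PGE2 challenge. Inhibition of PGE2-induced [Ca2+]i rise read by FLIPR fluorescence; pIC50 from curve fitting of half-maximal inhibition.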
On the technique in general: Calcium assays in cells follow changes in intracellular calcium, usually with a dye or a luminescent sensor.
For `CC(C)COc1ccc(Cl)cc1Cc1ccc(-c2nc3cc(C(C)(C)C)ccc3[nH]2)o1` [Example 127, 2-[5-({5-Chloro-2-[(2-methylpropyl)oxy]phenyl}-methyl)-2-furanyl]-5-(1,1-dimethylethyl)-1H-benzimidazole], the Ki was less than 1 µM. In the case of `CC(C)COc1ccc(Cl)cc1Cc1ccc(-c2nc3ccc(F)c(F)c3[nH]2)o1` [Example 128, 2-[5-({5-Chloro-2-[(2-methylpropyl)oxy]phenyl}-methyl)-2-furanyl]-4,5-difluoro-1H-benzimidazole], the Ki is less than 1 µM.

Consider `Fc1cc2nc(-c3ccc(Cc4cc(Cl)ccc4OCc4ccccc4)o3)[nH]c2cc1F` [Example 129, 2-[5-({5-Chloro-2-[(phenylmethyl)oxy]phenyl}methyl)-2-furanyl]-5,6-difluoro-1H-benzimidazole], for which the Ki is less than 1 µM. Regarding `Fc1cccc2nc(-c3ccc(Cc4cc(Cl)ccc4OCc4ccccc4)o3)[nH]c12` [Example 131, 2-[5-({5-Chloro-2-[(phenylmethyl)oxy]-phenyl}methyl)-2-furanyl]-4-fluoro-1H-benzimidazole], the Ki is less than 1 µM. Take `CC(C)COc1ccc(Cl)cc1Cc1ccc(-c2nc3cccc(CO)c3[nH]2)o1` [Example 134, {2-[5-({5-chloro-2-[(2-methylpropyl)oxy]phenyl}methyl)-2-furanyl]-1H-benzimidazol-4-yl}methanol]: the Ki is more than 1 µM.

`CC(C)COc1ccc(Cl)cc1Cc1ccc(-c2nc3cc(Br)cnc3[nH]2)o1` [Example 135, 6-Bromo-2-[5-({5-chloro-2-[(2-methylpropyl)oxy]phenyl}methyl)-2-furanyl]-1H-imidazo[4,5-b]pyridine hydrochloride]: the Ki is more than 1 µM.

As for `C=Cc1cnc2[nH]c(-c3ccc(Cc4cc(Cl)ccc4OCC(C)C)o3)nc2c1` [Example 137, 2-[5-({5-Chloro-2-[(2-methylpropyl)oxy]phenyl}methyl)-2-furanyl]-6-ethenyl-1H-imidazo[4,5-b]pyridine hydrochloride], the Ki was less than 1 µM. On to `CN(C)Cc1ccc2nc(-c3ccc(Cc4cc(Cl)ccc4OCc4ccccc4)o3)[nH]c2c1` [Example 138, ({2-[5-({5-Chloro-2-[(phenylmethyl)oxy]phenyl}methyl)-2-furanyl]-1H-benzimidazol-5-yl}methyl)dimethylamine dihydrochloride], for which the Ki was less than 1 µM.

On to `Clc1ccc(OCc2ccccc2)c(Cc2ccc(-c3nc4ccc(CN5CCOCC5)cc4[nH]3)o2)c1` [Example 139, 2-[5-({5-Chloro-2-[(phenylmethyl)oxy]-phenyl}methyl)-2-furanyl]-5-(4-morpholinylmethyl)-1H-benzimidazoledihydrochloride], for which the Ki is less than 1 µM. For the compound `Clc1ccc(OCc2ccccc2)c(Cc2ccc(-c3nc4ccc(CN5CCCC5)cc4[nH]3)o2)c1` [Example 140, 2-[5-({5-Chloro-2-[(phenylmethyl)oxy]-phenyl}methyl)-2-furanyl]-5-(1-pyrrolidinylmethyl)-1H-benzimidazoledihydrochloride], the Ki was less than 1 µM. In the case of `Clc1ccc(OCc2ccccc2)c(Cc2ccc(-c3nc4ccc(CN5CCCCC5)cc4[nH]3)o2)c1` [Example 141, 2-[5-({5-Chloro-2-[(phenylmethyl)oxy]-phenyl}methyl)-2-furanyl]-5-(1-piperidinylmethyl)-1H-benzimidazoledihydrochloride], the Ki was less than 1 µM.

Turning to `CC(C)COc1ccc(Cl)cc1Cc1ccc(-c2nc3ccc(CN4CCOCC4)cc3[nH]2)o1` [Example 144, 2-[5-({5-Chloro-2-[(2-methylpropyl)oxy]-phenyl}methyl)-2-furanyl]-5-(4-morpholinylmethyl)-1H-benzimidazoledihydrochloride], the Ki is less than 1 µM.

In the case of `CCN(CC)Cc1ccc2nc(-c3ccc(Cc4cc(Cl)ccc4OCC(C)C)o3)[nH]c2c1` [Example 150, N-({2-[5-({5-Chloro-2-[(2-methylpropyl)oxy]-phenyl}methyl)-2-furanyl]-1H-benzimidazol-5-yl}methyl)-N-ethylethanaminedihydrochloride], the Ki was less than 1 µM. For the compound `CC(C)COc1ccc(Cl)cc1Cc1ccc(-c2nc3ccc(CN(C)CC4CCOCC4)cc3[nH]2)o1` [Example 152, ({2-[5-({5-Chloro-2-[(2-methylpropyl)oxy]-phenyl}methyl)-2-furanyl]-1H-benzimidazol-5-yl}methyl)methyl(tetrahydro-2H-pyran-4-ylmethyl)aminedihydrochloride], the Ki is less than 1 µM. Consider `CC(C)COc1ccc(Cl)cc1Cc1ccc(-c2nc3ccc(CN(C)CC(C)(C)C)cc3[nH]2)o1` [Example 153, N-({2-[5-({5-Chloro-2-[(2-methylpropyl)oxy]-phenyl}methyl)-2-furanyl]-1H-benzimidazol-5-yl}methyl)-N,2,2-trimethyl-1-propanaminedihydrochloride], for which the Ki is less than 1 µM. In the case of `CCNCc1ccc2nc(-c3ccc(Cc4cc(Cl)ccc4OCC(C)C)o3)[nH]c2c1` [Example 154, N-({2-[5-({5-Chloro-2-[(2-methylpropyl)oxy]-phenyl}methyl)-2-furanyl]-1H-benzimidazol-5-yl}methyl)ethanaminedihydrochloride], the Ki was less than 1 µM. The result for `CC(C)COc1ccc(Cl)cc1Cc1ccc(-c2nc3ccc(CNC(C)C)cc3[nH]2)o1` [Example 155, N-({2-[5-({5-Chloro-2-[(2-methylpropyl)oxy]-phenyl}methyl)-2-furanyl]-1H-benzimidazol-5-yl}methyl)-2-propanaminedihydrochloride] reads less than 1 µM; that for `CN1CCN(Cc2cccc3nc(-c4ccc(Cc5cc(Cl)ccc5OCc5ccccc5)o4)[nH]c23)CC1` [Example 160, 2-[5-({5-Chloro-2-[(phenylmethyl)oxy]-phenyl}methyl)-2-furanyl]-4-[(4-methyl-1-piperazinyl)methyl]-1H-benzimidazolehydrochloride], less than 1 µM; that for `CC(C)COc1ccc(Cl)cc1Cc1ccc(-c2nc3cc(CCN4CCCC4)ccc3[nH]2)o1` [Example 161, 2-[5-({5-Chloro-2-[(2-methylpropyl)oxy]-phenyl}methyl)-2-furanyl]-5-[2-(1-pyrrolidinyl)ethyl]-1H-benzimidazoledihydrochloride], less than 1 µM. In the case of `CC(C)COc1ccc(Cl)cc1Cc1ccc(-c2nc3cc(CCN(C)C)ccc3[nH]2)o1` [Example 163, (2-{2-[5-({5-Chloro-2-[(2-methylpropyl)oxy]-phenyl}methyl)-2-furanyl]-1H-benzimidazol-5-yl}ethyl)dimethylaminedihydrochloride], the Ki is less than 1 µM. Under `CC(C)COc1ccc(Cl)cc1Cc1ccc(-c2nc3cc(CN(C)C)cnc3[nH]2)o1` [Example 164, ({2-[5-({5-Chloro-2-[(2-methylpropyl)oxy]-phenyl}methyl)-2-furanyl]-1H-imidazo[4,5-b]pyridin-6-yl}methyl)dimethyl-amine dihydrochloride] stands less than 1 µM; under `CC(C)COc1ccc(Cl)cc1Cc1ccc(-c2nc3cc(CN4CCCC4)cnc3[nH]2)o1` [Example 165, 2-[5-({5-Chloro-2-[(2-methylpropyl)oxy]-phenyl}methyl)-2-furanyl]-6-(1-pyrrolidinylmethyl)-1H-imidazo[4,5-b]pyridinedihydrochloride], less than 1 µM.

Take `CC(C)COc1ccc(Cl)cc1Cc1ccc(-c2ncc[nH]2)o1` [Example 167, 2-[5-({5-Chloro-2-[(2-methylpropyl)oxy]phenyl}methyl)-2-furanyl]-1H-imidazole]: the Ki is not above 0.01 µM. On to `CC(C)COc1ccc(Cl)cc1Cc1ccc(-c2cc[nH]n2)o1` [Example 168], for which the Ki was less than 1 µM. The result for `Clc1ccc(OCc2ccccc2)c(Cc2ccc(-c3nnc[nH]3)o2)c1` [Example 169, 3-[5-({5-Chloro-2-[(phenylmethyl)oxy]phenyl}methyl)-2-furanyl]-1H-1,2,4-triazole] reads less than 1 µM.
